test system: HCV replicon cells; assay: Cell-based HCV replicon assay (replicon RNA level by real time PCR, Taqman); settings: Hepatitis C virus, 72 h, HCV replicon cells, harvested day 3, replicon RNA by real time PCR; given as number; read-out: EC90 (μM) range
Summary of the method: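 HCV replicon cells treated 3 days with 10 serial 2-fold compound dilutions (top 25 μM to 1 μM; 0.5% DMSO, 10% FBS). Replicon RNA quantified by multiplex Taqman RT-PCR (NS5B amplicon, GAPDH control); EC50 and EC90 = concentrations giving ΔCT of 1 and 3.2 over baseline.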

`CCOc1cc2cc(-c3c(C)nc(N[C@H](C)c4ccc(C)cc4)nc3N[C@@H]3C[C@H](CO)[C@@H](O)[C@H]3O)oc2c(C)n1` [Example 40] and `CCCOc1cc2cc(-c3c(C)nc(NCCOC)nc3N[C@@H]3C[C@H](CO)[C@@H](O)[C@H]3O)oc2c(C)n1` [Example 35] are within 1.5-fold of each other in EC90: 0.15 µM for the first, 0.1 µM for the second.

Work on `COCCNc1nc(C)c(-c2cc3cc(OC)ncc3o2)c(N[C@@H]2C[C@H](CO)[C@@H](O)[C@H]2O)n1` [Example 25] yielded an EC90 of 0.8 µM.

same assay, conditions: Hepatitis C virus, 72 h, HCV replicon cells, harvested day 3, replicon RNA by real time PCR; reported as range class; read-out: EC90 (μM) range

`Cc1nc(NCCOC(C)C)nc(N[C@@H]2C[C@H](CO)[C@@H](O)[C@H]2O)c1-c1nc2ccccc2s1` [Example 220] and `Cc1nc(N)nc(N[C@@H]2C[C@H](CO)[C@@H](O)[C@H]2O)c1-c1nc2ccccc2s1` [Example 119] cannot be ordered by EC90: < 0.5 µM for the first, < 0.5 µM for the second.

`CCOc1cc2cc(-c3c(Cl)nc(NCC(F)(F)F)nc3N[C@@H]3C[C@H](CO)[C@@H](O)[C@H]3O)oc2c(C)n1` [Example 20] and `CCOc1cc2cc(-c3c(C)nc(NCCOC)nc3N[C@@H]3C[C@H](CO)[C@@H](O)[C@H]3O)oc2c(C)n1` [Example 31] cannot be ordered by EC90: < 0.5 µM for the first, < 0.5 µM for the second.

`CC1(C)O[C@@H]2[C@@H](CO)C[C@@H](Nc3nc(N)nc(Cl)c3-c3nc4ccc(OCc5ccccc5)cc4s3)[C@@H]2O1` [Example 198] and `Nc1nc(Cl)c(-c2nc3ccc(Cl)cc3s2)c(N[C@@H]2C[C@H](CO)[C@@H](O)[C@H]2O)n1` [Example 188] cannot be ordered by EC90: > 5 µM for the first, > 5 µM for the second.

Going from `CN(C)C(=O)c1ccc2oc(-c3c(Cl)nc(N)nc3N[C@@H]3C[C@H](CO)[C@@H](O)[C@H]3O)cc2c1` [Example 168] to `CCc1cc2cc(-c3c(Cl)nc(N)nc3N[C@@H]3C[C@H](CO)[C@@H](O)[C@H]3O)oc2cn1` [Example 406], the EC90 falls from > 5 µM to < 0.5 µM.

For `Nc1nc(Cl)c(-c2ccc(Oc3ccccc3)cc2)c(N[C@@H]2C[C@H](CO)[C@@H](O)[C@H]2O)n1` [Example 101], the EC90 was > 5 µM.

same assay, conditions: Hepatitis C virus, 72 h, HCV replicon cells, harvested on day 3, replicon RNA by real time PCR; calculated EC90 reported as range class; read-out: EC90 (μM) range

`CCc1cc2cc(-c3c(C)nc(NCc4ccco4)nc3N[C@@H]3C[C@H](CO)[C@@H](O)[C@H]3O)oc2cn1` [Example 705] and `CCc1cc2cc(-c3c(C)nc(NCCOC)nc3N[C@@H]3C[C@H](CO)[C@@H](O)[C@H]3O)oc2cn1` [Example 508] cannot be ordered by EC90: < 0.5 µM for the first, < 0.5 µM for the second.

Compared with `Cc1nc(NCc2ccncc2)nc(N[C@@H]2C[C@H](CO)[C@H]3OC(C)(C)O[C@H]32)c1-c1nc2ccccc2s1` [Example 464], `Cc1nc(CNc2nc(C)c(-c3nc4ccccc4s3)c(N[C@@H]3C[C@H](CO)[C@H]4OC(C)(C)O[C@H]43)n2)cs1` [Example 494] is higher in EC90: < 0.5 µM for the first, > 5 µM for the second.

`CCc1cc2cc(-c3c(Cl)nc(NCC(C)C)nc3N[C@@H]3C[C@H](CO)[C@@H](O)[C@H]3O)oc2cn1` [Example 518] and `CC(C)(C)Nc1nc(Cl)c(-c2nc3ccccc3s2)c(N[C@@H]2C[C@H](CO)[C@@H](O)[C@H]2O)n1` [Example 428] cannot be ordered by EC90: < 0.5 µM for the first, < 0.5 µM for the second.

`Cc1nc(NC2CCOCC2)nc(N[C@@H]2C[C@H](CO)[C@@H](O)[C@H]2O)c1-c1nc2ccccc2s1` [Example 425] and `CCCNc1nc(C)c(-c2nc3ccccc3s2)c(N[C@@H]2C[C@H](CO)[C@@H](O)[C@H]2O)n1` [Example 422] cannot be ordered by EC90: < 0.5 µM for the first, < 0.5 µM for the second.

`Cc1nc(NCc2nccs2)nc(N[C@@H]2C[C@H](CO)[C@@H](O)[C@H]2O)c1-c1nc2ccccc2s1` [Example 474] and `Cc1cccnc1CNc1nc(C)c(-c2nc3ccccc3s2)c(N[C@@H]2C[C@H](CO)[C@@H](O)[C@H]2O)n1` [Example 499] cannot be ordered by EC90: < 0.5 µM for the first, < 0.5 µM for the second.

`OC[C@H]1C[C@@H](Nc2nc(NCCc3ccccc3)nc(Cl)c2-c2nc3ccccc3s2)[C@H](O)[C@@H]1O` [Example 444] and `Cc1cccc(CNc2nc(C)c(-c3nc4ccccc4s3)c(N[C@@H]3C[C@H](CO)[C@@H](O)[C@H]3O)n2)c1` [Example 486] cannot be ordered by EC90: < 0.5 µM for the first, < 0.5 µM for the second.

`CNc1ccc2sc(-c3c(C)nc(NCC(F)(F)F)nc3N[C@@H]3C[C@H](CO)[C@@H](O)[C@H]3O)nc2c1` [Example 260] and `Cc1nc(NCC2CC2)nc(N[C@@H]2C[C@H](CO)[C@@H](O)[C@H]2O)c1-c1nc2cnccc2s1` [Example 523] cannot be ordered by EC90: < 0.5 µM for the first, < 0.5 µM for the second.

`CCOCCNc1nc(C)c(-c2nc(C)c(C)s2)c(N[C@@H]2C[C@H](CO)[C@@H](O)[C@H]2O)n1` [Example 137] gave an EC90 of 0.5 to 5 µM.

same assay, conditions: Hepatitis C virus, 72 h, HCV replicon cells, replicon RNA level by real time PCR (Taqman), day 3; calculated EC90; read-out: EC90 (μM) range

First: Cc1nc(NCC(F)(F)F)nc(N[C@@H]2C[C@H](CO)[C@@H](O)[C@H]2O)c1-c1nc2ncccc2o1 [Example 2008]
Second: Cc1ccc(CNc2nc(C)c(-c3nc4ncccc4o3)c(N[C@@H]3C[C@H](CO)[C@@H](O)[C@H]3O)n2)cc1 [Example 2007]
The EC90 of the first is higher: 0.5 to 5 µM for the first, < 0.5 µM for the second.

For `Cc1nc(NCC(F)(F)F)nc(N[C@@H]2C[C@H](CO)[C@H]3OC(C)(C)O[C@H]32)c1-c1nc2cnccc2o1` [Example 2002], the EC90 was > 5 µM.

same assay, conditions: Hepatitis C virus, 72 h, HCV replicon cells, replicon RNA level by real time PCR (Taqman), harvested on day 3; calculated EC90 reported as range class; read-out: EC90 (μM) range

`Cc1nc(NCC(F)(F)F)nc(N[C@@H]2C[C@H](CO)[C@@H](O)[C@H]2O)c1-c1cc2cc(OCC(C)C)nc(C)c2o1` [Example 1055] and `CCOc1nc(C)cc2cc(-c3c(C)nc(NCc4cc(OC)cc(OC)c4)nc3N[C@@H]3C[C@H](CO)[C@@H](O)[C@H]3O)oc12` [Example 1248] fall in the same range of EC90: 0.5 to 5 µM for the first, 0.5 to 5 µM for the second.

Compared with `COc1cccc2sc(-c3c(C)nc(NCC(F)(F)F)nc3N[C@@H]3C[C@H](C(C)O)[C@@H](O)[C@H]3O)nc12` (some centres unmarked) [Example 1072], `Cc1nc(NCCOC(F)(F)F)nc(N[C@@H]2C[C@H](CO)[C@@H](O)[C@H]2O)c1-c1nc2ccccc2s1` [Example 1066] is lower in EC90: 0.5 to 5 µM for the first, < 0.5 µM for the second.

`Cc1cccc(CNc2nc(C)c(-c3nc4ccccc4s3)c(N[C@@H]3C[C@H](CO)[C@@H](O)[C@H]3O)n2)n1` [Example 1208] and `COc1cccc(C)c1Nc1nc(C)c(-c2nc3ccccc3s2)c(N[C@@H]2C[C@H](CO)[C@@H](O)[C@H]2O)n1` [Example 1233] fall in the same range of EC90: 0.5 to 5 µM for the first, 0.5 to 5 µM for the second.

First: COc1cccc(Nc2nc(C)c(-c3nc4ccccc4s3)c(N[C@@H]3C[C@H](CO)[C@@H](O)[C@H]3O)n2)c1 [Example 1122]
Second: Cc1nc(Nc2ncco2)nc(N[C@@H]2C[C@H](CO)[C@@H](O)[C@H]2O)c1-c1nc2ccccc2s1 [Example 1226]
The EC90 of the first is lower: 0.5 to 5 µM for the first, > 5 µM for the second.

`CCc1nccc2sc(-c3c(C)nc(NCC(C)(C)C)nc3N[C@@H]3C[C@H](CO)[C@@H](O)[C@H]3O)nc12` [Example 1334] and `Cc1ccc(CNc2nc(C)c(-c3nc4cnccc4s3)c(N[C@@H]3C[C@H](CO)[C@@H](O)[C@H]3O)n2)s1` [Example 539] cannot be ordered by EC90: < 0.5 µM for the first, < 0.5 µM for the second.

`Cc1nc(NCC2CC2)nc(N[C@@H]2C[C@H](CO)[C@@H](O)C2)c1-c1nc2ccccc2s1` [Example 1240] and `[2H]C([2H])(Nc1nc(C)c(-c2nc3ccccc3s2)c(N[C@@H]2C[C@H](CO)[C@@H](O)[C@H]2O)n1)C(F)(F)F` [Example 1250] fall in the same range of EC90: 0.5 to 5 µM for the first, 0.5 to 5 µM for the second.

First: Cc1nc(N(C)C)nc(N[C@@H]2C[C@H](CO)[C@@H](O)[C@H]2O)c1-c1nc2cnccc2s1 [Example 533]
Second: CC(=O)NC[C@H]1C[C@@H](Nc2nc(NCc3cccs3)nc(C)c2-c2nc3ccccc3s2)[C@H](O)[C@@H]1O [Example 1331]
The EC90 of the first is higher: > 5 µM for the first, < 0.5 µM for the second.

`COc1cc2cc(-c3c(C)nc(NCC4CC4)nc3N[C@@H]3C[C@H](CO)[C@H]4OC(C)(C)O[C@H]43)oc2c(OC)n1` [Example 1126] was tested, and the EC90 was 0.5 to 5 µM.

same assay, conditions: Hepatitis C virus, 72 h, HCV replicon cells, replicon RNA level by real time PCR, harvested day 3; read-out: EC90 (μM) range

Going from `Cc1ccc(CCNc2nc(C)c(-c3nc4cnccc4s3)c(N[C@@H]3C[C@H](CO)[C@@H](O)[C@H]3O)n2)s1` [Example 1813] to `Cc1nc(O)nc(N[C@@H]2C[C@H](CO)[C@@H](O)[C@H]2O)c1-c1nc2ccccc2s1` [Example 1605], the EC90 rises from < 0.5 µM to > 5 µM.

Compared with `Cc1nc(N[C@H](c2ccc(C(F)(F)F)cc2)C(F)(F)F)nc(N[C@@H]2C[C@H](CO)[C@@H](O)[C@H]2O)c1-c1nc2c(C)nccc2s1` [Example 1531], `Cc1nc(N[C@H](C)c2ccc(OC(F)(F)F)cc2)nc(N[C@@H]2C[C@H](CO)[C@@H](O)[C@H]2O)c1-c1nc2c(C3CC3)nccc2s1` [Example 1401] is lower in EC90: > 5 µM for the first, < 0.5 µM for the second.

First: Cc1nc(NCC2CC2)nc(N[C@@H]2CC[C@@H](O)[C@@]2(C)O)c1-c1nc2ccccc2s1 [Example 1701]
Second: CCOCCNc1nc(C)c(-c2nc3cnccc3s2)c(N[C@@H]2CC[C@@H](O)[C@@]2(C)O)n1 [Example 1819]
The EC90 of the first is higher: 0.5 to 5 µM for the first, < 0.5 µM for the second.

Going from `Cc1nc(N(C)CC(F)(F)F)nc(N[C@@H]2C[C@H](CN(C)S(C)(=O)=O)[C@@H](O)[C@H]2O)c1-c1nc2ccccc2s1` [Example 1378] to `Cc1nc(NCC(F)(F)F)nc(N[C@@H]2C[C@H](CS(C)(=O)=O)[C@@H](O)[C@H]2O)c1-c1nc2ccccc2s1` [Example 1357], the EC90 falls from > 5 µM to < 0.5 µM.

`Cc1nc(N[C@H](C)C2CC2)nc(N[C@@H]2C[C@H](CO)[C@@H](O)[C@H]2O)c1-c1nc2c(CC(C)C)nccc2s1` [Example 1373] and `CCCc1nccc2sc(-c3c(C)nc(N[C@H](C)C4CC4)nc3N[C@@H]3C[C@H](CNC(=O)OC)[C@@H](O)[C@H]3O)nc12` [Example 1388] cannot be ordered by EC90: < 0.5 µM for the first, < 0.5 µM for the second.

`Cc1nc(NCC(F)(F)F)nc(N[C@@H]2C[C@H](CNS(=O)(=O)CC(C)C)[C@@H](O)[C@H]2O)c1-c1nc2ccccc2s1` [Example 1512] and `Cc1nc(NCC(F)(F)F)nc(N[C@@H]2C[C@H](C(O)c3ncc[nH]3)[C@@H](O)[C@H]2O)c1-c1nc2ccccc2s1` (some centres unmarked) [Example 1654] fall in the same range of EC90: 0.5 to 5 µM for the first, 0.5 to 5 µM for the second.

`Cc1nc(NCC(F)(F)F)nc(N[C@@H]2C[C@H](CO)[C@@H](O)[C@H]2O)c1-c1nc2ccccc2o1` [Example 1509] and `Cc1nc(NCC(F)(F)F)nc(N[C@@H]2C[C@H](C(O)c3nccn3C)[C@@H](O)[C@H]2O)c1-c1nc2ccccc2s1` (some centres unmarked) [Example 1653] cannot be ordered by EC90: < 0.5 µM for the first, < 0.5 µM for the second.
